# Source: WO2016169030A1, “Fumarate and crystals of pyridylamine compound” (priority 2015, dated 2016)
# Assay: Humidity (wettability/hygroscopicity) test, Chinese Pharmacopoeia 2010
# Format: physicochemical
# Conditions: Guidelines for Drug Wetting Test, Chinese Pharmacopoeia 2010 Edition 2 Appendix XIX J; Table 2
row,Wet weight gain [%],Compound
1,61.75,"CC(=O)Nc1ncc(-c2cnn(C3CCNCC3)c2)cc1O[C@H](C)c1c(Cl)ccc(F)c1Cl [Compound of formula (II), N-Acetyl-3-[(1R)-1-(2,6-dichloro-3-fluorophenyl)ethoxy]-5-[1-(4-piperidinyl)-1H-pyrazol-4-yl]-2-pyridinamine]"
2,0.80,CC(=O)Nc1ncc(-c2cnn(C3CCNCC3)c2)cc1O[C@H](C)c1c(Cl)ccc(F)c1Cl.O=C(O)/C=C/C(=O)O [Fumarate]
3,7.83,O=C(O)CC(O)C(=O)O (stereo not drawn) [Malate]
